The text below walks through data of patent publication US20120004182A1, “PHARMACEUTICAL COMPOSITIONS AND METHODS FOR INDUCTION AND ENHANCEMENT OF APOPTOSIS IN TUMOR CELLS” (priority 2010, published 2012).

The experiment deals with human breast tumors. Put plainly: In vivo studies in nude mice bearing s.c. tumors. The note with it: intraperitoneal, every 2 days, 10 days of treatment, 25 nmol antagonist, 1 μmol 4OH-Tamoxifen per mouse. From the text:
Female athymic (nude) mice (CD1 nu/nu), 6 to 8 weeks old on arrival, were obtained from Charles River (Sulzfeld, Germany). The mice were housed in sterile cages in a temperature-controlled room with 12-hour light/12-hour dark schedule and were fed autoclaved chow and water ad libitum. All experiments were done according to the German ethical guidelines and the German laws for protection of animals.
Tumors were initiated by subcutaneous injection of 1×10^7 cancer cells into the right flank. After 2 weeks all animals had developed solid tumors of about 200 mm^3 and treatment was initiated. The in vivo experiments were done as follows: 25 nmol of GnRH-II antagonist of Seq. ID. No. 23 without or with 1 μmol of 40H-Tamoxifen per mouse (5 mice per group and control group) were injected intraperitoneally. Treatment was repeated every 2 days. Tumor volumes were measured. The mice were killed after 10 days of treatment. […]
The proliferation and induction of apoptosis were analyzed after treatment without or with a GnRH-II antagonist without or with co-treatment with 4OH-Tamoxifen. Nude mice bearing human breast tumors s.c. were treated without or with a GnRH-II antagonist alone or in combination with 4OH-Tamoxifen and the tumor volumes were measured.

For the molecule `CC/C(=C(\c1ccccc1)c1ccc(OCCN(C)C)cc1)c1ccccc1` [Tamoxifen], the tumor volume result is given as “increases”.

Take “Ac-D-2Nal-D-4 Cpa-D-3 Pal-Ser-His-D-3 Pal-Trp-Leu-Pro-D-Ala-NH2 [GnRH II antagonist]”: the tumor volume entry is listed as “increases”.
